Test results taken from patent US20090155352A1, “Microemulsion containing indolocarbazole compound and dosage forms containing the same” (Cephalon, Inc., priority 2007, published 2009).
In brackets after ≈: the same amount, converted by molar mass.

How the values were obtained:
[1] = AIBN forced degradation screen of antioxidants in lestaurtinib microemulsions; type: physicochemical; conditions: AIBN screening; for antioxidant effect against oxidation of lestaurtinib microemulsion: first experiment, thirteen formulations
Method: Various antioxidants were evaluated for their effectiveness in relation to the composition of the invention. In an initial experiment, capsules containing a lestaurtinib composition prepared according to the invention were placed on accelerated stability conditions. Several impurities were determined (LC-MS) to be related to the oxidation of lestaurtinib. Subsequently, a forced degradation experiment was performed using the radical initiator azoisobutyronitrile (AIBN) adapted for use with lestaurtinib. This was based on the fact that AIBN radical initiates the autoxidation mechanism that the majority of active ingredients follow for oxidation.
Using AIBN as a screening tool, a series of microemulsions prepared in accordance with the invention were formulated using different antioxidants to identify suitable solutions for preventing degradation of the composition. The first experiment used thirteen formulations using several classes of antioxidants (i.e., oxygen scavengers, sacrificial antioxidants and H-atom donors) to determine which reaction pathway was critical for disrupting the oxidation process. From this first experiment, several antioxidants were identified as efficacious: ascorbic acid, vitamin E, BHA and BHT.
A second experiment was then performed based on the information obtained from the first experiment. The second experiment evaluated combinations of antioxidants from different classes, different isomers of the same antioxidants, and mixtures of water-soluble and oil-soluble antioxidants.

[2] = Water solubility of lestaurtinib; type: physicochemical; conditions: at 22° C.
[3] = Solubilized concentration of lestaurtinib in microemulsion formed with added water
Method: In one embodiment, microemulsions containing solubilized indolocarbazole compounds, e.g., lestaurtinib, can be prepared using the hydrophilic component and water in the excipient composition but without the presence of the surfactant, e.g., MYRJ®. In one example, a composition without surfactant was prepared as follows. Lestaurtinib 120 mg was weighed into a glass vial and 2 mL of molten PEG-1450 was added.

[4] = Maximum solubility of lestaurtinib in prior solid state solution / SEDDS formulations; conditions: vehicle 25% PEG 400, 25% PEG 1000, 50% MYRJ 52, no added water
Excerpt: This formulation was a self-emulsifying drug delivery system (SEDDS) comprised of a blend of polyoxyethylene glycols (PEGs) and MYRJ® 52 (polyoxyethylene 40 stearate surfactant available from Croda N.A., Parsippany, N.J.).

[5] = microemulsion with water addition

COc1ccc(O)c(C(C)(C)C)c1 [BHA, butylhydroxyanisole]
antioxidant effect against oxidation of lestaurtinib microemulsion [1]: efficacious

O=C1O[C@H]([C@@H](O)CO)C(O)=C1O [ascorbic acid]
antioxidant effect against oxidation of lestaurtinib microemulsion [1]: efficacious

C[C@]12O[C@H](C[C@]1(O)CO)n1c3ccccc3c3c4c(c5c6ccccc6n2c5c31)CNC4=O [lestaurtinib, [9S-(9α,10β,12α)]-2,3,9,10,11,12-hexahydro-10-hydroxy-10-(hydroxymethyl)-9-methyl-9,12-epoxy-1H-diindolo[1,2,3-fg:3′,2′,1′-kl]pyrrolo[3,4-i][1,6]benzodiazocin-1-one]
solubility [2]: 1.7 µg/mL (≈ 3.87 µM) | final concentration of lestaurtinib in clear solution ([3]; Example 13, PEG-1450 and water, without surfactant, by HPLC): 59.2 mg/mL | solubilized concentration achieved using the invention [3, 5]: 87 mg/g | solubilized concentration achieved using the invention (total composition weight) [3, 5]: about 9% | maximum solubility obtainable in SEDDS formulation [4]: about 29 mg/g

O=S([O-])S(=O)(=O)[O-].[K+].[K+] [potassium metabisulfite]
effect on impurity levels in final formulation ([1]; second experiment): decreased the overall impurity levels

vitamin E
antioxidant effect against oxidation of lestaurtinib microemulsion [1]: efficacious
